Source: patent US5976783A, “Bis-maleimido cross-linking agents” (Boehringer Mannheim Corporation, priority 1997, dated 1999)

Columns and labels:
[1] = stability of 4-maleimidobutyraldehyde on work-up; assay type: physicochemical; conditions: work-up needed low temperatures (0° C.) and complete exclusion of oxygen
Experimental: 4-Maleimidobutyraldehyde diethylacetal (2 g, 8.29 mmol) in tetrahydrofuran (20 ml) and water (0.5 ml) was stirred under argon and DOWEX 50X8 ion exchange resin (H^+, 2 g, ® Dow Chemical Co.) was added. After 12 hours stirring at room temperature, the solvent was decanted, dried (MgSO4) and evaporated in vacuo to afford 4-maleimidobutyraldehyde (formula III) as a yellow oil which rapidly solidified on standing (1.38 g, 99%); TLC Rf=0.4, ethyl acetate/hexane 1:1.

ICE protease = conditions: See Nature 375:78-81 (1995); cited from earlier work

| Compound | stability [1] | inhibition of ICE protease (ICE protease) |
| --- | --- | --- |
| O=CCCCN1C(=O)C=CC1=O [4-maleimidobutyraldehyde] | extremely unstable | – |
| CC(=O)N[C@@H](Cc1ccc(O)cc1)C(=O)N[C@H](C(=O)N[C@@H](C)C(=O)N[C@@H](CC(=O)O)C(=O)CCl)C(C)C [Ac-Tyr-Val-Ala-Asp-*] | – | potent inhibitor |
